Experimental data as given in article PMC6028563, “Probing Substituents in the 1- and 3-Position: Tetrahydropyrazino-Annelated Water-Soluble Xanthine Derivatives as Multi-Target Drugs With Potent Adenosine Receptor Antagonistic Activity” (Frontiers in Chemistry, 2018).

Tests used:
human A1 AR = biological target: T1, human A1 AR (Homo sapiens, UniProt P30542); experiment: Radioligand binding assay at human A1 AR vs. [^3H]CCPA; conditions: human (h); CHO cell membranes; n = 3
T1 construct: expressed in transfected cells; host or cells: CHO cells
T1 sequence (P30542 1-326): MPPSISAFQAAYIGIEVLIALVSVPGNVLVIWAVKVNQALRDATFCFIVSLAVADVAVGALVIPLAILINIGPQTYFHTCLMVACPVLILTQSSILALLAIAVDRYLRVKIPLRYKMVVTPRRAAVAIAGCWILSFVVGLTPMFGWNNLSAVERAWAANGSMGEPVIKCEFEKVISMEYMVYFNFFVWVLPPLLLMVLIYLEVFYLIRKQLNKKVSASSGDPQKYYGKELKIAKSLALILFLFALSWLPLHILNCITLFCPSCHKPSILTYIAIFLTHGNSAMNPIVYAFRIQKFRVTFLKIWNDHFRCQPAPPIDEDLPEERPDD
Description: (§1) Membrane preparations and radioligand binding assays at rat A1 (rat brain cortex) and rat A2A ARs (rat brain striatum) were performed as previously described (Ozola et al., [2003]; Alnouri et al., [2015]). For assays at human A1, A2A, A2B, and A3 ARs, CHO cell membranes expressing one of the human AR subtypes were used as previously reported (Klotz et al., [1998]; Alnouri et al., [2015]; De Filippo et al., [2016]).
(§2) The synthesized tetrahydropyrazino[2,1-f ]purinediones 13–20 were evaluated in radioligand binding assays for their affinity to A1 ARs of rat brain cortical membrane and to A2A ARs of rat brain striatal membrane preparations. Selected compounds were further investigated for their affinity to human A1 and A2A ARs recombinantly expressed in Chinese hamster ovary (CHO) cells. All compounds were additionally investigated for their affinity to human A2B and A3 ARs recombinantly expressed in CHO cells to determine their AR subtype selectivity. […] It is well known that all xanthine derivatives lacking a ribose moiety, including tricyclic compounds, can only block ARs, but never act as AR agonists; therefore, additional functional studies were not required. […] Potent MAO-B inhibitors were additionally investigated for inhibition of human MAO-A to assess their selectivity. Results are presented in Tables 1–6, and data of standard ligands are included for comparison.

rat A2A AR = biological target: T2, rat A2A AR (Rattus norvegicus, UniProt P30543); experiment: Radioligand binding assay at rat A2A AR (rat brain striatum) vs. [^3H]MSX-2; conditions: rat (r); for Ki: rat brain striatum, n = 3, read-out: Ki ± SEM, A2A vs. [^3H]MSX-2
T2 construct: A2A ARs of rat brain striatal membrane preparations; from tissue; host or cells: rat brain striatum membranes
T2 sequence (P30543 whole entry): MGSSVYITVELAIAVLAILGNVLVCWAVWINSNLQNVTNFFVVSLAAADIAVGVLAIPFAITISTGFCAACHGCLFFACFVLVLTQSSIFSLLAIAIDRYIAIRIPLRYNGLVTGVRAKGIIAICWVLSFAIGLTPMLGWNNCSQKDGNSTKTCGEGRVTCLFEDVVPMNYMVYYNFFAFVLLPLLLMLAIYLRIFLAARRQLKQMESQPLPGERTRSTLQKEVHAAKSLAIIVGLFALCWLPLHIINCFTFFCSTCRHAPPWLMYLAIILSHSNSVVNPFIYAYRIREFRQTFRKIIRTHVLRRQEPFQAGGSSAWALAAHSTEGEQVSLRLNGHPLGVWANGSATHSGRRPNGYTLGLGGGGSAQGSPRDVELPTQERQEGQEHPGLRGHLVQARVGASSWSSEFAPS
How it was run: (§3)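 Membranes were prepared from rat brain cortex for A1 and from rat striatum for A2A, then used in radioligand displacement. For the human receptors, CHO cells recombinantly expressing a single AR subtype supplied the membranes.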

human A2A AR = biological target: T3, human A2A AR (Homo sapiens, UniProt P29274); experiment: Radioligand binding assay at human A2A AR vs. [^3H]MSX-2; conditions: CHO cell membranes, n = 3, read-out: Ki ± SEM, A2A vs. [^3H]MSX-2
T3 construct: expressed in transfected cells; host or cells: CHO cells
T3 sequence (P29274 whole entry): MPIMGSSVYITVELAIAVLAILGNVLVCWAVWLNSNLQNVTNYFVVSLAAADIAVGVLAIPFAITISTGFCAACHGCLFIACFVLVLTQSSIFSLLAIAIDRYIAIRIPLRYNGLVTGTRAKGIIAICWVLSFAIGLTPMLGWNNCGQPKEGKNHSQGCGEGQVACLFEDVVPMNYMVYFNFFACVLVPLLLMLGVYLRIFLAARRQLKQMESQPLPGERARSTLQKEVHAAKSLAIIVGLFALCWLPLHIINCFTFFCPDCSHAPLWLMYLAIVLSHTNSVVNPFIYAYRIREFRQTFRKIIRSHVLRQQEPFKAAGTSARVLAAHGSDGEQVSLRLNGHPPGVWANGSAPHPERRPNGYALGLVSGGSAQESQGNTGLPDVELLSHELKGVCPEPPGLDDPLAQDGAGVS
Description: as §1, §2

recombinant human MAO-B = biological target: T4, recombinant human MAO-B (Homo sapiens, UniProt P27338); experiment: Monoamine oxidase assay (Amplex Red), MAO-B; format: biochemical; conditions: for inhibition at 10 µM: at 10,000 nM (10 μM), read-out: % inhibition at indicated concentration, Human MAO-B; for IC50: n = 3, read-out: IC50 ± SEM, Human MAO-B
T4 construct: purchased Sigma-Aldrich M7441; host or cells: baculovirus-infected insect cells
T4 sequence (P27338 1-520): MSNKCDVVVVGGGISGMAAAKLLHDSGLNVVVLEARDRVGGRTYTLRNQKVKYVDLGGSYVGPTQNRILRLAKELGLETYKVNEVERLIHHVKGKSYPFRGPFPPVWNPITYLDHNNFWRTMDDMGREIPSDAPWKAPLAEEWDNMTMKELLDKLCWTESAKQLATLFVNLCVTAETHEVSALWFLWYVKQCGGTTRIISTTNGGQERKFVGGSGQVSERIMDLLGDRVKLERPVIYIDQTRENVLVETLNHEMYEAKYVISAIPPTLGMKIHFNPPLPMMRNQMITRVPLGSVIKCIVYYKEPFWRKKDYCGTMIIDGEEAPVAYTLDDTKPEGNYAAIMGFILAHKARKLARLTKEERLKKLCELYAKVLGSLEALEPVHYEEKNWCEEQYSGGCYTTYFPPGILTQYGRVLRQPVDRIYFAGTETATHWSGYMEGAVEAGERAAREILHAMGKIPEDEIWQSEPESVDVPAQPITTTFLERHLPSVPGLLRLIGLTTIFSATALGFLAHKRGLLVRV
How it was run: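 Recombinant human MAO-A and MAO-B, expressed in baculovirus-infected insect cells, were assayed by Amplex Red fluorometric detection. Rat MAO-B inhibition used mitochondria-enriched fractions from male Sprague Dawley rat liver.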

human A2B AR = biological target: T5, human A2B AR (Homo sapiens, UniProt P29275); experiment: Radioligand binding assay at human A2B AR vs. [^3H]PSB-603; conditions: for Ki: CHO cell membranes, n = 2 (n = 3 where marked a), read-out: Ki ± SEM, A2B vs. [^3H]PSB-603; for inhibition at 1 µM: at 1,000 nM, read-out: % inhibition of radioligand binding at indicated concentration, A2B vs. [^3H]PSB-603
T5 construct: expressed in transfected cells; host or cells: CHO cells
T5 sequence (P29275 1-332): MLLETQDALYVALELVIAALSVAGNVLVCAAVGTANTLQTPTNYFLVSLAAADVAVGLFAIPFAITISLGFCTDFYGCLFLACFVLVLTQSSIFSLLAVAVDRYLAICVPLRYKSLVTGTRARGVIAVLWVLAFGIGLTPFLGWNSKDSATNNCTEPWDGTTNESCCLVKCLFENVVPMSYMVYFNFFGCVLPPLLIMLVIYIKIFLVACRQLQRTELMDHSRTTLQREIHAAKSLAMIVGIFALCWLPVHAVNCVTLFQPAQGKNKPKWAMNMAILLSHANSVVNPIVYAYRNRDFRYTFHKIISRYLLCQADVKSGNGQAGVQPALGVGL
How it was run: as §3

human A3 AR = biological target: T6, human A3 AR (Homo sapiens, UniProt P0DMS8); experiment: Radioligand binding assay at human A3 AR vs. [^3H]PSB-11; conditions: for Ki: CHO cell membranes, n = 2 (n = 3 where marked a), read-out: Ki ± SEM, A3 vs. [^3H]PSB-11; for inhibition at 10 µM: at 10,000 nM, read-out: % inhibition of radioligand binding at indicated concentration, A3 vs. [^3H]PSB-11
T6 construct: expressed in transfected cells; host or cells: CHO cells
T6 sequence (P0DMS8 1-318): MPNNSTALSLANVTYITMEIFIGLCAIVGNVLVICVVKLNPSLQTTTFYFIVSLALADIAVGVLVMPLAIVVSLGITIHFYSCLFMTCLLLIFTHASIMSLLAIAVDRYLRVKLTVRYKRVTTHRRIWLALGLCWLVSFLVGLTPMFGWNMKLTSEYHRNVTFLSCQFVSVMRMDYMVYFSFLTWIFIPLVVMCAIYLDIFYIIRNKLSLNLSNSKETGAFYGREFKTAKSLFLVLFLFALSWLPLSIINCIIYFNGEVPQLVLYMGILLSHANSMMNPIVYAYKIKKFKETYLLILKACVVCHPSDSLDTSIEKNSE
How it was run: as §3

rat A1 AR = biological target: T7, rat A1 AR (Rattus norvegicus, UniProt P25099); experiment: Radioligand binding assay at rat A1 AR (rat brain cortex) vs. [^3H]CCPA; conditions: rat (r); rat brain cortex; n = 3
T7 construct: A1 ARs of rat brain cortical membrane; from tissue; host or cells: rat brain cortex membranes
T7 sequence (P25099 1-326): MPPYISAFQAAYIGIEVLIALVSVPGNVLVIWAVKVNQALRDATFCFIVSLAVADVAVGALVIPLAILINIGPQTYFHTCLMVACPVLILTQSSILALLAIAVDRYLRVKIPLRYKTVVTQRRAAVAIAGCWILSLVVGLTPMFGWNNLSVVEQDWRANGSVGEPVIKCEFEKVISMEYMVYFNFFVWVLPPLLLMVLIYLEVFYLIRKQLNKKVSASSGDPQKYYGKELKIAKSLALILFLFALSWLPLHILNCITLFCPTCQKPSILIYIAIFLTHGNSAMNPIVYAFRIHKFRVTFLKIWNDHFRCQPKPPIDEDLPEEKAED
How it was run: as §3

| Compound | Ki (human A1 AR) [nM] | Ki (rat A2A AR) [nM] | Ki (human A2A AR) [nM] | inhibition at 10 µM (recombinant human MAO-B) [%] | IC50 (recombinant human MAO-B) [nM] | Ki (human A2B AR) [nM] | inhibition at 1 µM (human A2B AR) [%] | Ki (human A3 AR) [nM] | Ki (rat A1 AR) [nM] | % inhibition of radioligand binding at indicated concentration, A2A vs. [^3H]MSX-2 (rat A2A AR; at 1,000 nM) [%] | inhibition at 10 µM (human A3 AR) [%] |
| --- | --- | --- | --- | --- | --- | --- | --- | --- | --- | --- | --- |
| C#CCn1c(=O)c2c(nc3n2CCN(CCc2ccccc2OC)C3)n(CC)c1=O [Compound 20i, 1-ethyl-8-(2-methoxyphenethyl)-3-propargyl-6,7,8,9-tetrahydropyrazino[2,1-f]purine-2,4(1H,3H)-dione] | 1260 | 883 ± 265 | 3230 | 26 | > 10000 | > 1000 | 24 | 5830 | 701 ± 204 | – | – |
| CCn1c(=O)c2c(nc3n2CCN(Cc2cc(F)cc(C(F)(F)F)c2)C3)n(C)c1=O [Compound 14p, 3-ethyl-8-(3-fluoro-5-(trifluoromethyl)benzyl)-1-methyl-6,7,8,9-tetrahydropyrazino[2,1-f]purine-2,4(1H,3H)-dione] | 330 ± 67 | 801 ± 99 | 503 ± 121 | 23 | > 10000 | > 1000 | 5 | > 10000 | 111 ± 25 | – | 39 |
| C#CCn1c(=O)c2c(nc3n2CCN(c2ccc(F)cc2)C3)n(CC)c1=O [Compound 20b, 1-ethyl-8-(4-fluorophenyl)-3-propargyl-6,7,8,9-tetrahydropyrazino[2,1-f]purine-2,4(1H,3H)-dione] | 1530 | 128 ± 20 | 378 ± 49 | 35 | > 10000 | > 1000 | 15 | 2390 | 410 ± 60 | – | – |
| C#CCn1c(=O)c2c(nc3n2CCN(CCc2ccccc2)C3)n(CC)c1=O [Compound 20h, 1-ethyl-8-phenethyl-3-propargyl-6,7,8,9-tetrahydropyrazino[2,1-f]purine-2,4(1h,3h)-dione] | 2440 | 1700 | 149 ± 28 | 27 | > 10000 | > 1000 | 16 | > 10000 | 117 ± 2 | – | 36 |
| C#CCn1c(=O)c2c(nc3n2CCN(CCc2cccc(OC)c2)C3)n(CC)c1=O [Compound 20j, 1-ethyl-8-(3-methoxyphenethyl)-3-propargyl-6,7,8,9-tetrahydropyrazino[2,1-f]purine-2,4(1H,3H)-dione] | 1020 | 798 ± 134 | 25500 | 30 | > 10000 | > 1000 | 11 | > 10000 | 669 ± 35 | – | 13 |

Further lines, results first:

| Ki (human A1 AR) [nM] | Ki (rat A2A AR) [nM] | Ki (human A2A AR) [nM] | inhibition at 10 µM (recombinant human MAO-B) [%] | IC50 (recombinant human MAO-B) [nM] | Ki (human A2B AR) [nM] | inhibition at 1 µM (human A2B AR) [%] | Ki (human A3 AR) [nM] | Ki (rat A1 AR) [nM] | % inhibition of radioligand binding at indicated concentration, A2A vs. [^3H]MSX-2 (rat A2A AR; at 1,000 nM) [%] | inhibition at 10 µM (human A3 AR) [%] | Compound |
| --- | --- | --- | --- | --- | --- | --- | --- | --- | --- | --- | --- |
| 128 ± 17 | > 1000 | 2380 | 47 | ≥ 10000 | > 1000 | 12 | 5410 | 85.9 ± 28.6 | 22 | – | CCn1c(=O)c2c(nc3n2CCN(Cc2cccc(Cl)c2)C3)n(CC)c1=O [Compound 15c, 8-(3-chlorobenzyl)-1,3-diethyl-6,7,8,9-tetrahydropyrazino[2,1-f]purine-2,4(1H,3H)-dione] |
| 13.6 ± 2.1 | 1040 | 1050 | 49 | ≥ 10000 | 496 ± 135 | – | 7220 | 21.5 ± 8.3 | – | – | CCn1c(=O)c2c(nc3n2CCN(Cc2cccc(Br)c2)C3)n(CC)c1=O [Compound 15d, 8-(3-bromobenzyl)-1,3-diethyl-6,7,8,9-tetrahydropyrazino[2,1-f]purine-2,4(1H,3H)-dione] |
| 189 ± 29 | 895 ± 210 | 663 ± 54 | 32 | > 10000 | > 1000 | 30 | > 10000 | 172 ± 28 | – | 29 | CCn1c(=O)c2c(nc3n2CCN(Cc2cccc(C(F)(F)F)c2F)C3)n(CC)c1=O [Compound 15h, 1,3-diethyl-8-(2-fluoro-3-(trifluoromethyl)benzyl)-6,7,8,9-tetrahydropyrazino[2,1-f]purine-2,4(1H,3H)-dione] |
